Source: patent publication US6689381B2, “Liposomal benzoquinazoline thymidylate synthase inhibitor formulations” (OSI Pharmaceuticals, Inc., priority 2000, dated 2004)

System: human colon tumor xenograft model (HCT-8, thymidine kinase (TK)-/-)
Assay: HCT-8 xenograft, NX1843 dose schedule study and combinations with 5-FU, NX211 and GW1843 (Table 27)
Type: in vivo, nude mice
Protocol: Female Nu/Nu mice (18-24 g, 10-14 weeks old) were obtained from Harlan Sprague Dawley, and housed in microisolator filtration racks and maintained with filtered acidified water and sterile lab chow ad libitum. […] Animals were allowed to acclimate to their new environment for 1 week prior to tumor cell implantation. Tumors were established by injecting harvested tumor cells in a single subcutaneous site on the flank of the mice in the axillary region. The tumors were grown until approximately 200+/−50 mm^3 in size. The animals were then sorted according to body weight, grouped four animals/cage, and tattooed on the tail for permanent identification. Groups consisting of 8 tumor-bearing mice each were administered weekly doses of experimental agents by IV bolus injection through the tail vein. Tumor volumes were determined with vernier caliper measurements taken at right angles using the formula, (L×W^2/2) and body weights, were collected twice weekly. Data was plotted as % change in body weight vs. time in days, and % tumor volume increase vs. days.
T=(mean) time in days for treated group to reach cutoff size (2 grams)
C=(mean) time in days for control group to reach cutoff size (2 grams)
WC is the mean tumor weight of control group at time x
Wt is mean tumor weight of treated group at time x
% Regression=100 (Wo−Wi)/Wo; where Wo is the mean tumor weight for treated group at the initiation of treatment and Wi=the mean tumor weight for that group at time some time x after treatment.
In addition to these dose groups the free drug was dosed at 100 mg/kg on days 1-5, and repeated for a second week.

O=c1[nH]cc(F)c(=O)[nH]1 [Lot 5-FU, 5-fluorourcil, reference compound]
% TGI (100 mg/kg, QD1, 8): 72% | Cures (100 mg/kg, QD1, 8): 0 | LCK (100 mg/kg, QD1, 8): 1.5 | % Regression day 22 (100 mg/kg, QD1, 8, day 22): 0% | log cell kill (LCK) (iv, NX1843 25 mg/kg d1,8, 15 mg/kg QD(1,3,5)×2 or 7.5 mg/kg QD(1-5)×2, GW1843 100 mg/kg d1-5 ×2, 5FU 100 mg/kg d1,8, NX211 6 mg/kg d1,8, combinations at same doses): 1.5
